Assay results reported in patent US8324245B2, “Quinoline derivative and quinazoline derivative inhibiting self-phosphorylation of hepatocytus proliferator receptor, and medicinal composition containing the same” (Kyowa Hakko Kirin Co., Ltd., priority 2001, dated 2012).

molecular target: T1, met (HGF receptor) in human gastric cancer cells MKN45 (Homo sapiens, UniProt P08581); assay: Inhibitory activity against met-autophosphorylation using ELISA method (2), MKN45 cells, HGF-independent; assay type: cell-based
T1 construct: endogenous in cells; host or cells: MKN45 human gastric cancer cells
T1 sequence (P08581 25-1390): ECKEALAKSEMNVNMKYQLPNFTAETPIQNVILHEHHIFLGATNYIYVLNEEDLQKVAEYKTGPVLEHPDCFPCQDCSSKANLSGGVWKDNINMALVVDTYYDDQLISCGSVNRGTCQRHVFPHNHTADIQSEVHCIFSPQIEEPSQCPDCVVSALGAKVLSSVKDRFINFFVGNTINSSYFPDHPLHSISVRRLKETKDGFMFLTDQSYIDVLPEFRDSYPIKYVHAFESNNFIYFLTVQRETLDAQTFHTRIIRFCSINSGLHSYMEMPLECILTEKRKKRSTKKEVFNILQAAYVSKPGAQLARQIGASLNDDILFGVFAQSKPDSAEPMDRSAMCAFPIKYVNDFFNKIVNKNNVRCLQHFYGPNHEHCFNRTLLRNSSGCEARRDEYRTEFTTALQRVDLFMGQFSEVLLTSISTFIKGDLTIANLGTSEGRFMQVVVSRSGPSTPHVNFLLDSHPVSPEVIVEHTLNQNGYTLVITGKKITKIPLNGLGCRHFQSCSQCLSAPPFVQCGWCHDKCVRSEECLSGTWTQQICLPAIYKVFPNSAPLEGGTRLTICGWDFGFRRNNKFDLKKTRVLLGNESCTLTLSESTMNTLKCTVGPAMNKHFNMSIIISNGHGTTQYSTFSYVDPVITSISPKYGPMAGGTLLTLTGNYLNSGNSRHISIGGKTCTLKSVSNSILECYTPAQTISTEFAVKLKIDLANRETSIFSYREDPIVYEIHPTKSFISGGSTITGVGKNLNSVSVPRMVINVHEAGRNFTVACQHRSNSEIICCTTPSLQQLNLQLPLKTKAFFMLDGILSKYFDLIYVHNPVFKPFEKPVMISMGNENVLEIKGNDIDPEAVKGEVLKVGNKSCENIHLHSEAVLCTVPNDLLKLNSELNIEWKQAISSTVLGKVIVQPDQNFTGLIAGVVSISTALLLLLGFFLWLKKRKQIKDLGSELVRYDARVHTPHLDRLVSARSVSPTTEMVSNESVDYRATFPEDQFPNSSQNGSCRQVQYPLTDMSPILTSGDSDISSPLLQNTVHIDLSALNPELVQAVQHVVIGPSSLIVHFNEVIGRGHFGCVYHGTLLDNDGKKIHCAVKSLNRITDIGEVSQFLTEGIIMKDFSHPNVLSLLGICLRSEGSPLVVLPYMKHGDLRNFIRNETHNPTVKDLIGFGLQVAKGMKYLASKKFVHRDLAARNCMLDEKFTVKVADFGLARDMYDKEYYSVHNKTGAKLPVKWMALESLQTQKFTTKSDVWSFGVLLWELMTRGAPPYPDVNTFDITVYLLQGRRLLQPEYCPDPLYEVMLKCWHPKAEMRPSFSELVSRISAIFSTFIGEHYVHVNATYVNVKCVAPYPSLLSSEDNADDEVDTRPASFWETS
Experimental: Cells were cultured with RPMI medium containing 0.1% fetal calf serum in 96-well flat-bottom plate in an amount of 3×10^4 per well, and were incubated at 37° C. overnight. The medium was then replaced by a fresh RPMI medium containing 0.1% fetal calf serum. A solution of the test compound in dimethyl sulfoxide was added to each well, and the incuvation was continued at 37° C. for additional one hr. The medium was removed, the cells were washed with phosphate buffered saline (pH 7.4), and 50 μl of a lysis buffer (20 mM HEPES (pH 7.4), 150 mM NaCl, 0.2% Triton X-100, 10% glycerol, 5 mM sodium orthovanadylate, 5 mM disodium ethylenediaminetetraacetate, and 2 mM Na4P2O7) was then added thereto. The mixture was shaken at 4° C. for 2 hr to prepare a cell extract.
Separately, phosphate buffered saline (50 μl, pH 7.4) containing 5 μg/ml of anti-phospho-tyrosine antibody (PY20; purchased from Transduction Laboratories) was added to a microplate for ELISA (Maxisorp; purchased from NUNC), followed by gentle agitation at 4° C. overnight to coat the surface of the wells with the antibody. After washing of the plate, 300 μl of a blocking solution was added, followed by gentle agitation at room temperature for 2 hr to perform blocking. After washing, the whole quantity of the cell extract was transferred to the wells, and the plate was then allowed to stand at 4° C. overnight. After washing, an anti-HGF receptor antibody (h-Met (C-12), purchased from Santa Cruz Biotechnology) was allowed to react at room temperature for one hr, and, after washing, a peroxidase-labeled anti-rabbit Ig antibody (purchased from Amersham) was allowed to react at room temperature for one hr. After washing, a chromophoric substrate for peroxidase (purchased from Sumitomo Bakelite Co., Ltd.) was added thereto to initiate a reaction. After a suitable level of color development, a reaction termination solution was added to stop the reaction, and the absorbance at 450 nm was measured with a microplate reader.

| SMILES | IC50 [µM] |
| --- | --- |
| COc1cc2nccc(Oc3ccc(NC(=O)NC(=O)Cc4ccc(F)c(F)c4)cc3F)c2cc1OC [Example 35, 1-[2-(3,4-difluorophenyl)acetyl]-3-[4-(6,7-dimethoxyquinolin-4-yloxy)-3-fluorophenyl]urea] | 0.0414 |
| COc1cc2nccc(Oc3ccc(NC(=O)NC(=O)Cc4ccc(F)cc4)cc3F)c2cc1OC [Example 23, 1-[4-(6,7-dimethoxyquinolin-4-yloxy)-3-fluoro-phenyl]-3-[2-(4-fluorophenyl)acetyl]urea] | 0.0263 |
| COc1cc2c(Oc3ccc(NC(=O)NC(=O)Cc4ccccc4)cc3F)ccnc2cc1OCCN1CCC(CO)CC1 [Example 283] | 0.0146 |
| COc1cc2nccc(Oc3ccc(NC(=S)NC(=O)Cc4ccccc4Cl)cc3)c2cc1OC [Example 59, 1-[2-(2-chlorophenyl)acetyl]-3-[4-(6,7-dimethoxyquinolin-4-yloxy)phenyl]thiourea] | 0.193 |
| CCOCCC(=O)NC(=S)Nc1ccc(Oc2ccnc3cc(OC)c(OC)cc23)cc1 [Example 62, 1-[4-(6,7-dimethoxyquinolin-4-yloxy)phenyl]-3-(3-ethoxypropionyl)thiourea] | 0.092 |
| COc1cc2nccc(Oc3ccc(NC(=O)NC(=O)CSC4CCCC4)cc3)c2cc1OC [Example 7, 1-(2-cyclopentylsulfanylacetyl)-3-[4-(6,7-dimethoxyquinolin-4-yloxy)phenyl]urea] | 0.292 |
| COc1cc2nccc(Oc3ccc(NC(=S)NC(=O)Cc4ccsc4)cc3F)c2cc1OC [Example 85, 1-[4-(6,7-dimethoxyquinolin-4-yloxy)-3-fluoro-phenyl]-3-(2-thiophen-3-ylacetyl)thiourea] | 0.0488 |
| COc1cc2nccc(Oc3ccc(NC(=O)NC(=O)CN4CCSCC4)cc3Cl)c2cc1OC [Example 131, 1-[3-chloro-4-(6,7-dimethoxyquinolin-4-yloxy)phenyl]-3-(2-thiomorpholin-4-ylacetyl)urea] | 2.37 |
| CCOCCC(=O)NC(=S)Nc1ccc(Oc2ccnc3cc(OC)c(OC)cc23)c(Cl)c1 [Example 159, 1-[3-chloro-4-(6,7-dimethoxyquinolin-4-yloxy)phenyl]-3-(3-ethoxypropionyl)thiourea] | 0.585 |
| COc1cc2nccc(Oc3ccc(NC(=S)NC(=O)c4ccccc4Br)cc3F)c2cc1OC [Example 146, 1-(2-bromobenzoyl)-3-[4-(6,7-dimethoxy-quinolin-4-yloxy)-3-fluorophenyl]thiourea] | 1.21 |
| COc1cc2nccc(Oc3ccc(NC(=O)NC(=O)Cc4cc(F)ccc4F)c(F)c3)c2cc1OC [Example 132] | 0.268 |
| COc1cc2nccc(Oc3ccc(NC(=S)NC(=O)Cc4cccc(F)c4)cc3Cl)c2cc1OC [Example 76, 1-[3-chloro-4-(6,7-dimethoxyquinolin-4-yloxy)-phenyl]-3-[2-(3-fluorophenyl)acetyl]thiourea] | 0.0517 |
| COc1cc2nccc(Oc3ccc(NC(=O)NC(=O)Nc4ccc(Cl)cn4)cc3)c2cc1OC [Example 231, N-(5-chloro-2-pyridyl)-({[4-(6,7-dimethoxy-quinolin-4-yloxy)anilino]carbonyl}amino)methanamide] | 0.329 |
| COc1cc2nccc(Oc3ccc(NC(=O)CC(=O)NC(C)c4ccccc4)cc3)c2cc1OC (centres unmarked) [Example 214, N-[4-(6,7-dimethoxyquinolin-4-yloxy)phenyl]-N′-(1-phenylethyl)malonamide] | 2.53 |
| COc1cc2c(Oc3ccc(NC(=O)NC(=O)Cc4ccccc4F)cc3F)ccnc2cc1OCCCn1ccnc1 [Example 306, 1-{3-Fluoro-4-[7-(3-imidazol-1-yl-propoxy)-6-methoxy-quinolin-4-yloxy]-phenyl}-3-[2-(2-fluoro-phenyl)-acetyl]-urea] | 0.0339 |
| COc1cc2nccc(Oc3ccc(NC(=S)NC(=O)Cc4ccccc4C(F)(F)F)cc3F)c2cc1OC [Example 201, 1-[4-(6,7-dimethoxyquinolin-4-yloxy)-3-fluorophenyl]-3-[2-(2-trifluoromethylphenyl)acetyl]-thiourea] | 0.226 |
| COc1cc2nccc(Oc3ccc(NC(=S)NC(=O)CC4C5CCC4CC5)c(F)c3)c2cc1OC (centres unmarked) [Example 89] | 0.0526 |
| COCCC(=O)NC(=S)Nc1ccc(Oc2ccnc3cc(OC)c(OC)cc23)c(Cl)c1 [Example 180, 1-[3-chloro-4-(6,7-dimethoxyquinolin-4-yloxy)phenyl]-3-(3-methoxy-propionyl)thiourea] | 2.56 |

| SMILES | IC50 [µM] |
| --- | --- |
| COc1cc2c(Oc3ccc(NC(=O)NC(=O)Cc4ccccc4)c(F)c3)ccnc2cc1OCCCN1CCOCC1 [Example 287] | 0.0225 |
| COc1cc2nccc(Oc3ccc(NC(=O)NC(=O)Cc4cccc(F)c4)c(F)c3)c2cc1OC [Example 36, 1-[4-(6,7-dimethoxyquinolin-4-yloxy)-2-fluoro-phenyl]-3-[2-(3-fluorophenyl)acetyl]urea] | 0.198 |
| COc1cc(Oc2ccnc3cc(OC)c(OC)cc23)ccc1NC(=S)NC(=O)Cc1ccsc1 [Example 86, 1-[4-(6,7-dimethoxyquinolin-4-yloxy)-2-methoxyphenyl]-3-(2-thiophen-3-ylacetyl)thiourea] | 0.0235 |
| COc1cc2nccc(Oc3ccc(NC(=O)NC(=O)CN4CCCc5cc(C)ccc54)c(F)c3)c2cc1OC [Example 119, 1-[4-(6,7-dimethoxyquinolin-4-yloxy)-2-fluorophenyl]-3-[2-(6-methyl-3,4-dihydro-2H-quinolin-1-yl)acetyl]urea] | 0.442 |
| COc1cc2nccc(Oc3ccc(NC(=O)C(C)C(=O)Nc4ccccc4)cc3)c2cc1OC (centres unmarked) [Example 225, N-[4-(6,7-dimethoxyquinolin-4-yloxy)phenyl]-2-methyl-N′-phenylmalonamide] | 0.281 |
| COc1cc2nccc(Oc3ccc(NC(=S)NC(=O)CCSC)cc3F)c2cc1OC [Example 147, 1-[4-(6,7-dimethoxyquinolin-4-yloxy)-3-fluorophenyl]-3-(3-methylsulfanylpropionyl)thiourea] | 1.17 |
| COc1cc2nccc(Oc3ccc(NC(=O)NC(=O)Nc4c(Cl)cccc4Cl)cc3)c2cc1OC [Example 263, N-(2,6-dichlorophenyl)-({[4-(6,7-dimethoxy-quinolin-4-yloxy)anilino]carbonyl}amino)methanamide] | 0.483 |
| COc1cc2nccc(Oc3ccc(NC(=S)NC(=O)Cc4ccc(F)cc4F)c(F)c3)c2cc1OC [Example 93, 1-[2-(2,4-difluorophenyl)acetyl]-3-[4-(6,7-dimethoxyquinolin-4-yloxy)-2-fluorophenyl]thiourea] | 0.121 |
| COc1cc2c(Oc3ccc(NC(=S)NC(=O)Cc4ccccc4Cl)cc3F)ccnc2cc1OCC(O)CN1CCCC1 (centres unmarked) [Example 317, 1-[2-(2-Chloro-phenyl)-acetyl]-3-{3-fluoro-4-[7-(2-hydroxy-3-pyrrolidin-1-yl-propoxy)-6-methoxy-quinolin-4-yloxy]-phenyl}-thiourea] | 0.0422 |
| COc1cc2nccc(Oc3ccc(NC(=O)CC(=O)Nc4ccc(F)cc4F)c(F)c3)c2cc1OC [Example 98, N-(2,4-difluorophenyl)-N′-[4-(6,7-dimethoxy-quinolin-4-yloxy)-2-fluorophenyl]malonamide] | 0.0278 |
| COc1cc2nccc(Oc3ccc(NC(=O)NC(=O)Nc4ccc(F)c(F)c4)cc3)c2cc1OC [Example 264, N-(3,4-difluorophenyl)-({[4-(6,7-dimethoxy-quinolin-4-yloxy)anilino]carbonyl}amino)methanamide] | 0.347 |
| COc1cc2nccc(Oc3ccc(NC(=S)NC(=O)CCC4CCCC4)cc3)c2cc1OC [Example 161, 1-(3-cyclopentylpropionyl)-3-[4-(6,7-dimethoxyquinolin-4-yloxy)phenyl]thiourea] | 0.246 |
| COc1cc2nccc(Oc3ccc(NC(=S)NC(=O)Cc4ccccc4)cc3Cl)c2cc1OC [Example 63, 1-[3-chloro-4-(6,7-dimethoxyquinolin-4-yloxy)-phenyl]-3-phenylacetylthiourea] | 0.0244 |
| COc1cc2nccc(Oc3ccc(NC(=S)NC(=O)Cc4cccc(C)c4)cc3F)c2cc1OC [Example 176, 1-[4-(6,7-dimethoxyquinolin-4-yloxy)-3-fluorophenyl]-3-(2-m-tolylacetyl)thiourea] | 0.221 |
| COc1cc2nccc(Oc3ccc(NC(=S)NC(=O)CC4C5CCC4CC5)cc3Cl)c2cc1OC (centres unmarked) [Example 91, 1-(2-bicyclo[2.2.1]hepto-7-ylacetyl)-3-[3-chloro-4-(6,7-dimethoxyquinolin-4-yloxy)phenyl]thiourea] | 0.0401 |
| COc1cc2nccc(Oc3ccc(NC(=O)NC(=O)Nc4ccc(C)cn4)cc3)c2cc1OC [Example 235, N-(5-methyl-2-pyridyl)-({[4-(6,7-dimethoxy-quinolin-4-yloxy)anilino]carbonyl}amino)methanamide] | 0.215 |
| COc1cc2nccc(Oc3ccc(NC(=S)NC(=O)Cc4ccc(C)cc4)cc3F)c2cc1OC [Example 190, 1-[4-(6,7-dimethoxyquinolin-4-yloxy)-3-fluorophenyl]-3-(2-p-tolylacetyl)thiourea] | 0.224 |
